# Data: ChEMBL document CHEMBL1152524, “Preparation of C-23 esterified silybin derivatives and evaluation of their lipid peroxidation inhibitory and DNA protective properties” (Bioorg Med Chem, 2009)
# Active and inactive are the calls of the source. The rule behind the calls is not given here.
# Tests used:
# [1] = Antioxidant activity assessed as protection against H2O2-induced pcDNA3.1(+) scission at 100 ug/mL after 30 mins by […] staining-based gel electrophoresis; format: functional
# [2] = Antioxidant activity assessed as superoxide anion scavenging activity at 100 ug/mL after 5 mins by NBT reduction assay; format: functional
# [3] = test system: Radical scavenging activity; test: Antioxidant activity assessed as DPPH radical scavenging activity at 100 ug/mL after 30 mins; format: functional
# Liver = test: Inhibition of FeSO4-induced lipid peroxidation in Sprague-Dawley rat liver homogenate assessed as decrease in malondialdehyde level after 1 hr by TBA assay; format: functional, tissue-based
# [4] = Antioxidant activity assessed as ferrous ion chelating activity after 30 mins by spectrophotometry; format: functional
# [5] = Antioxidant activity assessed as superoxide anion scavenging activity after 5 mins by NBT reduction assay; format: functional
# [6] = test system: Radical scavenging activity; test: Antioxidant activity assessed as DPPH radical scavenging activity after 30 mins; format: functional
# [7] = Antioxidant activity assessed as protection against H2O2-induced pcDNA3.1(+) scission after 30 mins by […] staining-based gel electrophoresis; format: functional
SMILES,Activity [1],Activity [2],Activity [3],IC50 (Liver),EC50 [4],EC50 [5],EC50 [6],Activity (Liver),Activity [7]
COc1cc(C2Oc3cc([C@H]4Oc5cc(O)cc(O)c5C(=O)[C@@H]4O)ccc3OC2COC(=O)c2cccc(Cl)c2)ccc1O (some centres not stated),Active,7%,5.6%,14.2 µM,106 µM,–,–,–,–
COc1cc(C2Oc3cc([C@H]4Oc5cc(O)cc(O)c5C(=O)[C@@H]4O)ccc3OC2COC(=O)c2cc([N+](=O)[O-])cc([N+](=O)[O-])c2)ccc1O (relative stereo),inactive,32%,22.1%,14.6 µM,205 µM,–,–,–,–
COc1cc(C2Oc3cc([C@H]4Oc5cc(O)cc(O)c5C(=O)[C@@H]4O)ccc3OC2COC(=O)c2cc(N)cc([N+](=O)[O-])c2)ccc1O (some centres not stated),inactive,54.3%,59.9%,0.2 µM,> 300 µM,129 µM,127 µM,Dose-dependent effect,–
COc1cc(C2Oc3cc([C@H]4Oc5cc(O)cc(O)c5C(=O)[C@@H]4O)ccc3OC2COC(=O)c2ccccc2)ccc1O (relative stereo),Active,inactive,40.4%,12.7 µM,105 µM,–,–,–,Dose-dependent effect
COc1cc(C2Oc3cc([C@H]4Oc5cc(O)cc(O)c5C(=O)[C@@H]4O)ccc3OC2COC(=O)/C=C/c2ccc(Cl)cc2)ccc1O (relative stereo),Active,9.1%,18.4%,12 µM,87.9 µM,–,–,–,Dose-dependent effect
COc1cc(C2Oc3cc([C@H]4Oc5cc(O)cc(O)c5C(=O)[C@@H]4O)ccc3OC2COC(=O)c2ccc(N)cc2)ccc1O (relative stereo),inactive,43.3%,16.4%,14.3 µM,128 µM,–,–,–,–
COc1cc(C2Oc3cc([C@H]4Oc5cc(O)cc(O)c5C(=O)[C@@H]4O)ccc3OC2COC(=O)c2ccc3c(c2)OCO3)ccc1O (relative stereo),inactive,7.3%,31.7%,20.8 µM,108 µM,–,–,–,–
COc1cc(C2Oc3cc([C@H]4Oc5cc(O)cc(O)c5C(=O)[C@@H]4O)ccc3OC2COC(=O)c2cc(OC)c(OC)c(OC)c2)ccc1O (relative stereo),Active,36.1%,52.6%,25.7 µM,94.8 µM,–,145 µM,–,Dose-dependent effect
COc1cc(C2Oc3cc([C@H]4Oc5cc(O)cc(O)c5C(=O)[C@@H]4O)ccc3OC2COC(=O)c2ccc([N+](=O)[O-])cc2)ccc1O (relative stereo),inactive,inactive,38.6%,12.6 µM,> 300 µM,–,–,–,–
COc1cc(C2Oc3cc([C@H]4Oc5cc(O)cc(O)c5C(=O)[C@@H]4O)ccc3OC2COC(=O)/C=C/c2ccc(Br)cc2)ccc1O (relative stereo),Active,6.5%,19.8%,16.3 µM,88.9 µM,–,–,–,Dose-dependent effect
COc1ccc(C(=O)OCC2Oc3ccc([C@H]4Oc5cc(O)cc(O)c5C(=O)[C@@H]4O)cc3OC2c2ccc(O)c(OC)c2)cc1 (relative stereo),inactive,6.5%,37.1%,21 µM,73.3 µM,–,–,–,–
COc1cc(C2Oc3cc([C@H]4Oc5cc(O)cc(O)c5C(=O)[C@@H]4O)ccc3OC2COC(=O)/C=C/c2ccc(C)cc2)ccc1O (relative stereo),Active,7.3%,33.3%,14.7 µM,136 µM,–,–,–,–
O=c1c(O)c(-c2ccc(O)c(O)c2)oc2cc(O)cc(O)c12 [QUERCETIN],–,93.8%,96.8%,1.8 µM,236 µM,31.8 µM,5.5 µM,Dose-dependent effect,–
COc1cc(C2Oc3cc([C@H]4Oc5cc(O)cc(O)c5C(=O)[C@@H]4O)ccc3OC2COC(=O)c2ccc(OC)c(OC)c2)ccc1O (mixture of isomers),Active,37.2%,34.2%,16 µM,77 µM,–,–,–,Dose-dependent effect
COc1cc(C2Oc3cc([C@H]4Oc5cc(O)cc(O)c5C(=O)[C@@H]4O)ccc3OC2CO)ccc1O (some centres not stated) [SILIBININ],–,38.2%,16.6%,22.7 µM,196 µM,–,–,–,–
CCOC(=O)CC(=O)OCC1Oc2ccc([C@H]3Oc4cc(O)cc(O)c4C(=O)[C@@H]3O)cc2OC1c1ccc(O)c(OC)c1 (relative stereo),Active,60.1%,16.2%,33.4 µM,101 µM,113 µM,–,–,–
O=C([O-])CN(CCN(CC(=O)[O-])CC(=O)O)CC(=O)O.[Na+].[Na+] [EDETATE DISODIUM ANHYDROUS],–,–,–,–,16.2 µM,–,–,–,–
